Test results: PubChem BioAssay (NCI)
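The concentration for 50% growth inhibition is given as GI50. TGI denotes the concentration required for complete inhibition of growth.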

Key:
Test in all cases: NCI anticancer screen, dose series, 384-well format
EKVX NSCLC = test system: EKVX NSCLC
LOX IMVI melanoma = test system: LOX IMVI melanoma
RPMI-8226 leukemia = test system: RPMI-8226 leukemia
OVCAR-3 ovarian = test system: OVCAR-3 ovarian
NCI/ADR-RES ovarian = test system: NCI/ADR-RES ovarian
HCT-15 colon = test system: HCT-15 colon
UACC-257 melanoma = test system: UACC-257 melanoma
HOP-62 NSCLC = test system: HOP-62 NSCLC
UACC-62 melanoma = test system: UACC-62 melanoma
SF-539 CNS = test system: SF-539 CNS
UO-31 renal = test system: UO-31 renal
M14 melanoma = test system: M14 melanoma
SK-MEL-5 melanoma = test system: SK-MEL-5 melanoma
COLO 205 colon = test system: COLO 205 colon
MDA-MB-468 breast = test system: MDA-MB-468 breast
NCI-H322M lung = test system: NCI-H322M lung
MOLT-4 leukemia = test system: MOLT-4 leukemia
SNB-19 CNS = test system: SNB-19 CNS
SK-OV-3 ovarian = test system: SK-OV-3 ovarian
NCI-H460 NSCLC = test system: NCI-H460 NSCLC
NCI-H522 lung = test system: NCI-H522 lung
DU-145 prostate = test system: DU-145 prostate
MALME-3M melanoma = test system: MALME-3M melanoma
ACHN renal = test system: ACHN renal
OVCAR-4 ovarian = test system: OVCAR-4 ovarian
U251 glioblastoma = test system: U251 glioblastoma
A549 NSCLC = test system: A549 NSCLC
TK-10 renal = test system: TK-10 renal
PC-3 prostate = test system: PC-3 prostate
SW-620 colon = test system: SW-620 colon
OVCAR-8 ovarian = test system: OVCAR-8 ovarian
MDA-MB-435 melanoma = test system: MDA-MB-435 melanoma
HS 578T breast = test system: HS 578T breast
K-562 leukemia = test system: K-562 leukemia
HT29 colon = test system: HT29 colon
IGROV1 ovarian = test system: IGROV1 ovarian
HL-60(TB) leukemia = test system: HL-60(TB) leukemia
CAKI-1 renal = test system: CAKI-1 renal
SF-268 CNS = test system: SF-268 CNS
MDA-MB-231 breast = test system: MDA-MB-231 breast
SNB-75 CNS = test system: SNB-75 CNS
KM12 colon = test system: KM12 colon
A498 renal = test system: A498 renal
T-47D breast = test system: T-47D breast
BT-549 breast = test system: BT-549 breast

Cc1cc(-c2ncc(-c3cccnc3)cc2/C=C/c2ccccc2)cnc1-c1cccnc1
GI50 (EKVX NSCLC): 3.15 µM
GI50 (LOX IMVI melanoma): 2.22 µM
TGI (LOX IMVI melanoma): 5.08 µM
GI50 (RPMI-8226 leukemia): 0.62 µM
TGI (RPMI-8226 leukemia): 2.37 µM
GI50 (OVCAR-3 ovarian): 2.37 µM
TGI (OVCAR-3 ovarian): 5.95 µM
GI50 (NCI/ADR-RES ovarian): 2.19 µM
TGI (NCI/ADR-RES ovarian): 5.42 µM
GI50 (HCT-15 colon): 3.54 µM
GI50 (UACC-257 melanoma): 6.52 µM
GI50 (HOP-62 NSCLC): 1.85 µM
TGI (HOP-62 NSCLC): 4.11 µM
GI50 (UACC-62 melanoma): 2.16 µM
TGI (UACC-62 melanoma): 7.5 µM
GI50 (SF-539 CNS): 3.76 µM
GI50 (UO-31 renal): 2.99 µM
GI50 (M14 melanoma): 3.76 µM
TGI (M14 melanoma): 12.6 µM
GI50 (SK-MEL-5 melanoma): 1.12 µM
TGI (SK-MEL-5 melanoma): 2.57 µM
GI50 (COLO 205 colon): 6.06 µM
GI50 (MDA-MB-468 breast): 3.34 µM
GI50 (NCI-H322M lung): 2.29 µM
TGI (NCI-H322M lung): 5.49 µM
GI50 (MOLT-4 leukemia): 1.13 µM
TGI (MOLT-4 leukemia): 2.34 µM
GI50 (SNB-19 CNS): 3.82 µM
TGI (SNB-19 CNS): 19.6 µM
GI50 (SK-OV-3 ovarian): 3.17 µM
TGI (SK-OV-3 ovarian): 11.3 µM
GI50 (NCI-H460 NSCLC): 1.93 µM
TGI (NCI-H460 NSCLC): 3.46 µM
GI50 (NCI-H522 lung): 2.02 µM
TGI (NCI-H522 lung): 5.12 µM
GI50 (DU-145 prostate): 1.81 µM
TGI (DU-145 prostate): 3.55 µM
GI50 (MALME-3M melanoma): 2.53 µM
TGI (MALME-3M melanoma): 6.85 µM
GI50 (ACHN renal): 3.79 µM
GI50 (OVCAR-4 ovarian): 2.75 µM
TGI (OVCAR-4 ovarian): 9.25 µM
GI50 (U251 glioblastoma): 3.8 µM
GI50 (A549 NSCLC): 3.33 µM
TGI (A549 NSCLC): > 100 µM
GI50 (TK-10 renal): 3.24 µM
GI50 (PC-3 prostate): 2.04 µM
TGI (PC-3 prostate): 4.58 µM
GI50 (SW-620 colon): 3.93 µM
GI50 (OVCAR-8 ovarian): 2.41 µM
TGI (OVCAR-8 ovarian): > 100 µM
GI50 (MDA-MB-435 melanoma): 6.49 µM
GI50 (HS 578T breast): 1.6 µM
TGI (HS 578T breast): 3.56 µM
GI50 (K-562 leukemia): 3 µM
TGI (K-562 leukemia): 32.2 µM
GI50 (HT29 colon): 3.69 µM
GI50 (IGROV1 ovarian): 3.72 µM
GI50 (HL-60(TB) leukemia): 1.32 µM
TGI (HL-60(TB) leukemia): 2.59 µM
GI50 (CAKI-1 renal): 3.04 µM
TGI (CAKI-1 renal): 21.4 µM
GI50 (SF-268 CNS): 3.68 µM
TGI (SF-268 CNS): 15.3 µM
GI50 (MDA-MB-231 breast): 4.15 µM
TGI (MDA-MB-231 breast): 22.5 µM
GI50 (SNB-75 CNS): 3.07 µM
TGI (SNB-75 CNS): 16.7 µM
GI50 (KM12 colon): 3.15 µM
TGI (KM12 colon): 12.1 µM
GI50 (A498 renal): 2.78 µM
TGI (A498 renal): 9.16 µM
GI50 (T-47D breast): 1.93 µM
TGI (T-47D breast): 8.06 µM
GI50 (BT-549 breast): 2.32 µM
TGI (BT-549 breast): 9.63 µM
